Each block holds one compound with its values, some of them ahead of it.
Assays:
[1] = target: T1, Histamine H2 receptor (Homo sapiens, UniProt P25021); test: Agonist activity at NlucN/mini-Gi protein-fused human H2R stably expressed in HEK293T cells assessed as induction of mini-Gi protein recruitment using furimazine as substrate measured for 45 mins by luminescence assay; type: functional, cell-based
[2] = target: T1, Histamine H2 receptor; test: Agonist activity at human H2 receptor expressed in Sf9 cell membranes co-exprssing GsalphaS assessed as stimulation of [35S]GTPgammaS binding incubated for 90 mins by scintillation counting analysis; type: functional, Membrane
[3] = target: T1, Histamine H2 receptor; test: Displacement of [3H]UR-DE257 from Gsalphas-coupled human H2R expressed in Sf9 cell membranes by competitive binding assay; set-up: species or system Membrane
[4] = target: T1, Histamine H2 receptor; test: Binding affinity to human H2R expressed in HEK293T-qs5-HA cells by flow cytometry analysis; type: cell-based
[5] = target: T1, Histamine H2 receptor; test: Agonist activity at human H2 receptor expressed in HEK293T-ARRB1 cells assessed as stimulation of beta-arrestin 1 recruitment by measuring maximum efficacy; type: functional, cell-based; conditions: filed as agonist
[6] = target: T1, Histamine H2 receptor; test: Agonist activity at human H2 receptor expressed in HEK293T-ARRB2 cells assessed as stimulation of beta-arrestin 2 recruitment; type: functional, cell-based
[7] = target: T1, Histamine H2 receptor; test: Agonist activity at human H2 receptor expressed in HEK293T-ARRB1 cells assessed as stimulation of beta-arrestin 1 recruitment; type: functional, cell-based

T1 sequence (P25021 whole entry, the tested form may be a part): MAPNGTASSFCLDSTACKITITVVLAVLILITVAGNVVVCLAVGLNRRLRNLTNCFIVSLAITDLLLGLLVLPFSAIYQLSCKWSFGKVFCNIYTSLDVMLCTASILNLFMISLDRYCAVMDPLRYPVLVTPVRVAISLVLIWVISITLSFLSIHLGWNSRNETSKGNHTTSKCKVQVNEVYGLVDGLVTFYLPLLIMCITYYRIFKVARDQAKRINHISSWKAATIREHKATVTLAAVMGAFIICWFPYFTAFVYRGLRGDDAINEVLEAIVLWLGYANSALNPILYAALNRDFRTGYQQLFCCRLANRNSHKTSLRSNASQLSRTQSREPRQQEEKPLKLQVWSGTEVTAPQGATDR

Compound: Cc1nc(N)sc1CCCN/C(N)=N/C(=O)NCCCCCCCCNC(=O)CCCCCNC(=O)COc1ccc(/C=C/C2=[N+]3C(=Cc4ccc(-c5cccs5)n4[B-]3(F)F)C=C2)cc1
EC50 [2]: 72.4 nM | Ki [3]: 30.1 nM | Kd [4]: 81.3 nM

Compound: CC1(C)C(/C=C/C=C/C=C2\c3ccccc3C(C)(C)N2CCCCCC(=O)NCCCCCCCCNC(=O)/N=C(\N)NCCCc2c[nH]cn2)=[N+](CCCCS(=O)(=O)[O-])c2ccccc21
Emax [5]: 0.25 | EC50 [1]: 339 nM | EC50 [2]: 120 nM | EC50 [6]: 115 nM | Ki [3]: 66.1 nM | EC50 [7]: 427 nM | Kd [4]: 56.2 nM

Compound: Cc1nc(N)sc1CCCN/C(N)=N/C(=O)NCCCCCCCCNC(=O)CCCCCN1/C(=C/C=C/C=C/C2=[N+](CCCCS(=O)(=O)[O-])c3ccccc3C2(C)C)c2ccccc2C1(C)C
Emax [5]: 0.09 | EC50 [1]: 1100 nM | EC50 [2]: 339 nM | EC50 [6]: 129 nM | Ki [3]: 562 nM | EC50 [7]: 617 nM | Kd [4]: 70.8 nM

Compound: Cc1nc(N)sc1CCCN/C(N)=N/C(=O)NCCCCCCCCCCNC(=O)CCCCCN1/C(=C/C=C/C=C/C2=[N+](CCCCS(=O)(=O)O)c3ccccc3C2(C)C)c2cc(S(=O)(=O)[O-])ccc2C1(C)C
EC50 [1]: 2040 nM | EC50 [2]: 2400 nM | Ki [3]: > 1000 nM

Compound: Cc1nc(N)sc1CCCN/C(N)=N/C(=O)NCCCCCCNC(=O)CCCCCN1/C(=C/C=C/C=C/C2=[N+](C)c3ccccc3C2(C)C)c2ccccc2C1(C)C
Emax [5]: 0.57 | EC50 [1]: 501 nM | EC50 [2]: 186 nM | EC50 [6]: 191 nM | Ki [3]: 21.9 nM | EC50 [7]: 513 nM | Kd [4]: 33 nM

Second part, the compound after the results:

EC50 [1]: 1450 nM | EC50 [2]: 676 nM | Ki [3]: 95.5 nM | Kd [4]: 229 nM
Compound: Cc1nc(N)sc1CCCN/C(N)=N/C(=O)NCCCCCCCCCCNC(=O)CCCCCN1/C(=C/C=C/C=C/C2=[N+](CCCCS(=O)(=O)[O-])c3ccccc3C2(C)C)c2ccccc2C1(C)C

Emax [5]: 1
Compound: NCCc1c[nH]cn1

EC50 [1]: 759 nM | EC50 [2]: 1290 nM | Ki [3]: 263 nM | Kd [4]: > 1000 nM
Compound: Cc1nc(N)sc1CCCN/C(N)=N/C(=O)NCCCCCCCCNC(=O)CCCCCN1/C(=C/C=C/C=C/C2=[N+](CCCCS(=O)(=O)O)c3ccccc3C2(C)C)c2cc(S(=O)(=O)[O-])ccc2C1(C)C

Emax [5]: 0.55 | EC50 [1]: 257 nM | EC50 [2]: 100 nM | EC50 [6]: 64.6 nM | Ki [3]: 263 nM | EC50 [7]: 339 nM | Kd [4]: 112 nM
Compound: CC1(C)C(/C=C/C=C/C=C2\c3ccccc3C(C)(C)N2CCCCCC(=O)NCCCCCCCCNC(=O)/N=C(\N)NCCCc2nnc(N)s2)=[N+](CCCCS(=O)(=O)[O-])c2ccccc21

EC50 [1]: 3890 nM | EC50 [2]: 562 nM | Ki [3]: 251 nM | Kd [4]: 1000 nM
Compound: Cc1nc(N)sc1CCCN/C(N)=N/C(=O)NCCCCCCNC(=O)CCCCCN1/C(=C/C=C/C=C/C2=[N+](CCCCS(=O)(=O)[O-])c3ccccc3C2(C)C)c2ccccc2C1(C)C

From ChEMBL document CHEMBL5053521 (Bioorg Med Chem Lett, 2021)
